{"source": "ChEMBL document CHEMBL5465560", "about": "“Selectivity Literature for EUbOPEN Chemogenomic Library” (2024)", "conditions_in_all_cases": "at 10 µM", "key": {"[1]": {"test_system": "Receptor-type tyrosine-protein kinase FLT3 (Homo sapiens), P36888 [UNDEFINED MUTATION]", "assay": "(§1) Selectivity interaction (KinomeScan (DiscoverX)) EUB0000655a FLT3"}, "[2]": {"test_system": "T1, Receptor-type tyrosine-protein kinase FLT3 (Homo sapiens), P36888 [N841I]", "T1 sequence (whole entry)": "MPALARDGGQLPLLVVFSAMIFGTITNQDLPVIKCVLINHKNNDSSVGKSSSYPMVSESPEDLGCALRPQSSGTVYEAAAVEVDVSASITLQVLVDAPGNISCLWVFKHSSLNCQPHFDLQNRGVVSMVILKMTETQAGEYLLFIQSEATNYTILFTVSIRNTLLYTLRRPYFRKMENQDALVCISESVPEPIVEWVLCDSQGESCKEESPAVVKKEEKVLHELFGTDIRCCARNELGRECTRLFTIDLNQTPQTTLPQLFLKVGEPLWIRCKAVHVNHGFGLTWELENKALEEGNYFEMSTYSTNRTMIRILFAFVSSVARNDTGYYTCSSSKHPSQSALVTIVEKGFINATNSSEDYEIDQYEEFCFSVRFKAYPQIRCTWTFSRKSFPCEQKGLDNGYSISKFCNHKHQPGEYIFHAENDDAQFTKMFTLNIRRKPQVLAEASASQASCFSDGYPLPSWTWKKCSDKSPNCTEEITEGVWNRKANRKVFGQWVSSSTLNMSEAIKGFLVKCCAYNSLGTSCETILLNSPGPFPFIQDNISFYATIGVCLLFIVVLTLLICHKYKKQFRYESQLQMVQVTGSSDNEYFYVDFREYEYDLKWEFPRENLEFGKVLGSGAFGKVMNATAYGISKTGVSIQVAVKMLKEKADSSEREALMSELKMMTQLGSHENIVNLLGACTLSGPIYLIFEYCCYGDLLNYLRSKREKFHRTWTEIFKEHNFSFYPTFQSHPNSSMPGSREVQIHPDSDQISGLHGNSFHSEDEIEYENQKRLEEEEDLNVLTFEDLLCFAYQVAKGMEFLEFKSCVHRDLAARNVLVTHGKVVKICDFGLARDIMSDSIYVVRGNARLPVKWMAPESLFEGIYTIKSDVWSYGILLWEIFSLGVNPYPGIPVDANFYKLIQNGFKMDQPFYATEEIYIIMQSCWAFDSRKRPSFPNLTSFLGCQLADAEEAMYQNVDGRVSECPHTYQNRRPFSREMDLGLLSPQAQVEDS", "assay": "as §1"}, "[3]": {"test_system": "T2, Receptor-type tyrosine-protein kinase FLT3 (Homo sapiens), P36888 [K663Q]", "T2 sequence (whole entry)": "T1 sequence (whole entry) with K663Q, I841N", "assay": "as §1"}, "[4]": {"test_system": "T3, Receptor-type tyrosine-protein kinase FLT3 (Homo sapiens), P36888 [D835Y]", "T3 sequence (whole entry)": "T1 sequence (whole entry) with D835Y, I841N", "assay": "as §1"}, "[5]": {"target": "Receptor-type tyrosine-protein kinase FLT3 (Homo sapiens) (UniProt P36888)", "assay": "as §1"}}, "note": "Numbering of substitutions follows the chain as printed."}
{"smiles": "CN(C)CCOc1ccc(-c2nc(-c3ccncc3)c(-c3ccc4c(c3)CC/C4=N\\O)[nH]2)cc1", "values": [{"measurement": "% of control", "setting": "[1]", "result": 78, "unit": "%"}, {"measurement": "% of control", "setting": "[2]", "result": 81, "unit": "%"}, {"measurement": "% of control", "setting": "[3]", "result": 90, "unit": "%"}, {"measurement": "% of control", "setting": "[4]", "result": 64, "unit": "%"}, {"measurement": "% of control", "setting": "[5]", "result": 62, "unit": "%"}]}
